Experiments:
Set-up in all cases: scale not given here
ABUTH Velvetleaf [1] = experiment: Postemergence herbicidal evaluation, ABUTH; assay type: in vivo, Abutilon theophrasti, Medic.; conditions: postemergence spray, rated about two-three weeks after treatment
Summary of the method: (§1)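 Visual injury rating ~2–3 wk post-spray; replicate tests averaged. Two-week-old seedlings; foliar spray at 40 psi; 0.006–0.400 kg ai/ha in 80/20 acetone/water + 1.0% methylated seed oil.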

AMBEL Ragweed, Common [2] = experiment: Postemergence herbicidal evaluation, AMBEL; assay type: in vivo, Ambrosia artemisifolia, L.; conditions: postemergence spray, rated about two-three weeks after treatment
Summary of the method: as §1

CASOB Sicklepod [3] = experiment: Postemergence herbicidal evaluation, CASOB; assay type: in vivo, Cassia obtusifolia, L.; conditions: postemergence spray, rated about two-three weeks after treatment
Summary of the method: as §1

[4] = system: CHEAL Lambsquarters, Common; experiment: Postemergence herbicidal evaluation, CHEAL; assay type: in vivo, Chenopodium album, L.; conditions: postemergence spray, rated about two-three weeks after treatment
Summary of the method: as §1

ECHOG Barnyardgrass [5] = experiment: Postemergence herbicidal evaluation, ECHOG; assay type: in vivo, Echinochloa crus-galli, (L.) Beau; conditions: postemergence spray, rated about two-three weeks after treatment
Summary of the method: as §1

GALAP Galium [6] = experiment: Postemergence herbicidal evaluation, GALAP; assay type: in vivo, Galium aparine; conditions: postemergence spray, rated about two-three weeks after treatment
Summary of the method: as §1

[7] = system: IPOHE Morningglory, Ivyleaf; experiment: Postemergence herbicidal evaluation, IPOHE; assay type: in vivo, Ipomoea hederacea, (L.) Jacq.; conditions: postemergence spray, rated about two-three weeks after treatment
Summary of the method: as §1

SETVI Foxtail, Green [8] = experiment: Postemergence herbicidal evaluation, SETVI; assay type: in vivo, Setaria viridis, (L.) Beau; conditions: postemergence spray, rated about two-three weeks after treatment
Summary of the method: as §1

GLXMAW Soybean, Williams [9] = experiment: Postemergence herbicidal evaluation, GLXMAW; assay type: in vivo, Glycine max, (L.) Merr. cv Williams; conditions: postemergence spray, rated about two-three weeks after treatment
Summary of the method: as §1

[10] = system: TRZAWR Wheat, Winter, cv Riband; experiment: Postemergence herbicidal evaluation, TRZAWR; assay type: in vivo, Triticum aestivum; conditions: postemergence spray, rated about two-three weeks after treatment
Summary of the method: as §1

ORYSAT Rice, Tebonnet [11] = experiment: Postemergence herbicidal evaluation, ORYSAT; assay type: in vivo, Oryza sativa, (L.); conditions: postemergence spray, rated about two-three weeks after treatment
Summary of the method: as §1

ZEAMX Corn, Field [12] = experiment: Postemergence herbicidal evaluation, ZEAMX; assay type: in vivo, Zea mays, L. (Sammel-Bezeichnung); conditions: postemergence spray, rated about two-three weeks after treatment
Summary of the method: as §1

ABUTH Velvetleaf [13] = experiment: Preemergence herbicidal evaluation, ABUTH; assay type: in vivo, Abutilon theophrasti, Medic.; conditions: preemergence
Summary of the method: (§2)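 Seeds mixed with potting soil were planted on about one inch of soil in cups, then sprayed with the test compound in aqueous acetone at roughly 0.013 to 0.800 kg per hectare. Plants were kept under standard greenhouse care and injury was rated four to five weeks after treatment.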

AMBEL Ragweed, Common [14] = experiment: Preemergence herbicidal evaluation, AMBEL; assay type: in vivo, Ambrosia artemisifolia, L.; conditions: preemergence
Summary of the method: as §2

CASOB Sicklepod [15] = experiment: Preemergence herbicidal evaluation, CASOB; assay type: in vivo, Cassia obtusifolia, L.; conditions: preemergence
Summary of the method: as §2

[16] = system: CHEAL Lambsquarters, Common; experiment: Preemergence herbicidal evaluation, CHEAL; assay type: in vivo, Chenopodium album, L.; conditions: preemergence
Summary of the method: as §2

ECHOG Barnyardgrass [17] = experiment: Preemergence herbicidal evaluation, ECHOG; assay type: in vivo, Echinochloa crus-galli, (L.) Beau; conditions: preemergence
Summary of the method: as §2

GALAP Galium [18] = experiment: Preemergence herbicidal evaluation, GALAP; assay type: in vivo, Galium aparine; conditions: preemergence
Summary of the method: as §2

[19] = system: IPOHE Morningglory, Ivyleaf; experiment: Preemergence herbicidal evaluation, IPOHE; assay type: in vivo, Ipomoea hederacea, (L.) Jacq.; conditions: preemergence
Summary of the method: as §2

SETVI Foxtail, Green [20] = experiment: Preemergence herbicidal evaluation, SETVI; assay type: in vivo, Setaria viridis, (L.) Beau; conditions: preemergence
Summary of the method: as §2

GLXMAW Soybean, Williams [21] = experiment: Preemergence herbicidal evaluation, GLXMAW; assay type: in vivo, Glycine max, (L.) Merr. cv Williams; conditions: preemergence
Summary of the method: as §2

[22] = system: TRZAWR Wheat, Winter, cv Riband; experiment: Preemergence herbicidal evaluation, TRZAWR; assay type: in vivo, Triticum aestivum; conditions: preemergence
Summary of the method: as §2

ORYSAT Rice, Tebonnet [23] = experiment: Preemergence herbicidal evaluation, ORYSAT; assay type: in vivo, Oryza sativa, (L.); conditions: preemergence
Summary of the method: as §2

ZEAMX Corn, Field [24] = experiment: Preemergence herbicidal evaluation, ZEAMX; assay type: in vivo, Zea mays, L. (Sammel-Bezeichnung); conditions: preemergence
Summary of the method: as §2

SMILES: Cc1ccc(-n2nnc3cc(F)c(-n4c(=O)cc(C(F)(F)F)n(C)c4=O)cc32)cc1C [Example 23]
- Postemergence herbicidal rating ABUTH (ABUTH Velvetleaf [1]; 0.008 kg/ha): 9.0
- Postemergence herbicidal rating ABUTH (ABUTH Velvetleaf [1]; 0.016 kg/ha): 9.0
- Postemergence herbicidal rating ABUTH (ABUTH Velvetleaf [1]; 0.032 kg/ha): 9.0
- Postemergence herbicidal rating ABUTH (ABUTH Velvetleaf [1]; 0.062 kg/ha): 9.0
- Postemergence herbicidal rating AMBEL (AMBEL Ragweed, Common [2]; 0.008 kg/ha): 0.0
- Postemergence herbicidal rating AMBEL (AMBEL Ragweed, Common [2]; 0.016 kg/ha): 0.0
- Postemergence herbicidal rating AMBEL (AMBEL Ragweed, Common [2]; 0.032 kg/ha): 4.0
- Postemergence herbicidal rating AMBEL (AMBEL Ragweed, Common [2]; 0.062 kg/ha): 9.0
- Postemergence herbicidal rating CASOB (CASOB Sicklepod [3]; 0.008 kg/ha): 0.0
- Postemergence herbicidal rating CASOB (CASOB Sicklepod [3]; 0.016 kg/ha): 0.0
- Postemergence herbicidal rating CASOB (CASOB Sicklepod [3]; 0.032 kg/ha): 0.0
- Postemergence herbicidal rating CASOB (CASOB Sicklepod [3]; 0.062 kg/ha): 3.0
- Postemergence herbicidal rating CHEAL ([4]; 0.008 kg/ha): 3.0
- Postemergence herbicidal rating CHEAL ([4]; 0.032 kg/ha): 4.0
- Postemergence herbicidal rating CHEAL ([4]; 0.062 kg/ha): 9.0
- Postemergence herbicidal rating ECHCG (ECHOG Barnyardgrass [5]; 0.008 kg/ha): 0.0
- Postemergence herbicidal rating ECHCG (ECHOG Barnyardgrass [5]; 0.016 kg/ha): 0.0
- Postemergence herbicidal rating ECHCG (ECHOG Barnyardgrass [5]; 0.032 kg/ha): 0.0
- Postemergence herbicidal rating ECHCG (ECHOG Barnyardgrass [5]; 0.062 kg/ha): 0.0
- Postemergence herbicidal rating GALAP (GALAP Galium [6]; 0.008 kg/ha): 0.0
- Postemergence herbicidal rating GALAP (GALAP Galium [6]; 0.016 kg/ha): 2.0
- Postemergence herbicidal rating GALAP (GALAP Galium [6]; 0.032 kg/ha): 2.0
- Postemergence herbicidal rating GALAP (GALAP Galium [6]; 0.062 kg/ha): 2.0
- Postemergence herbicidal rating IPOHE ([7]; 0.008 kg/ha): 2.0
- Postemergence herbicidal rating IPOHE ([7]; 0.016 kg/ha): 9.0
- Postemergence herbicidal rating IPOHE ([7]; 0.032 kg/ha): 9.0
- Postemergence herbicidal rating IPOHE ([7]; 0.062 kg/ha): 9.0
- Postemergence herbicidal rating SETVI (SETVI Foxtail, Green [8]; 0.008 kg/ha): 7.0
- Postemergence herbicidal rating SETVI (SETVI Foxtail, Green [8]; 0.016 kg/ha): 9.0
- Postemergence herbicidal rating SETVI (SETVI Foxtail, Green [8]; 0.032 kg/ha): 9.0
- Postemergence herbicidal rating SETVI (SETVI Foxtail, Green [8]; 0.062 kg/ha): 9.0
- Postemergence herbicidal rating GLXMAW (GLXMAW Soybean, Williams [9]; 0.008 kg/ha): 3.5
- Postemergence herbicidal rating GLXMAW (GLXMAW Soybean, Williams [9]; 0.016 kg/ha): 4.5
- Postemergence herbicidal rating GLXMAW (GLXMAW Soybean, Williams [9]; 0.032 kg/ha): 4.5
- Postemergence herbicidal rating GLXMAW (GLXMAW Soybean, Williams [9]; 0.062 kg/ha): 4.5
- Postemergence herbicidal rating TRZAWR ([10]; 0.008 kg/ha): 4.0
- Postemergence herbicidal rating TRZAWR ([10]; 0.016 kg/ha): 4.5
- Postemergence herbicidal rating TRZAWR ([10]; 0.032 kg/ha): 5.5
- Postemergence herbicidal rating TRZAWR ([10]; 0.062 kg/ha): 6.5
- Postemergence herbicidal rating ORYSAT (ORYSAT Rice, Tebonnet [11]; 0.008 kg/ha): 2.5
- Postemergence herbicidal rating ORYSAT (ORYSAT Rice, Tebonnet [11]; 0.016 kg/ha): 3.0
- Postemergence herbicidal rating ORYSAT (ORYSAT Rice, Tebonnet [11]; 0.032 kg/ha): 3.5
- Postemergence herbicidal rating ORYSAT (ORYSAT Rice, Tebonnet [11]; 0.062 kg/ha): 4.0
- Postemergence herbicidal rating ZEAMX (ZEAMX Corn, Field [12]; 0.008 kg/ha): 5.5
- Postemergence herbicidal rating ZEAMX (ZEAMX Corn, Field [12]; 0.016 kg/ha): 7.0
- Postemergence herbicidal rating ZEAMX (ZEAMX Corn, Field [12]; 0.032 kg/ha): 8.0
- Postemergence herbicidal rating ZEAMX (ZEAMX Corn, Field [12]; 0.062 kg/ha): 8.5
- ABUTH herbicidal rating (ABUTH Velvetleaf [13]; rate 0.016 kg/ha): 0.0
- ABUTH herbicidal rating (ABUTH Velvetleaf [13]; rate 0.032 kg/ha): 3.0
- ABUTH herbicidal rating (ABUTH Velvetleaf [13]; rate 0.062 kg/ha): 9.0
- ABUTH herbicidal rating (ABUTH Velvetleaf [13]; rate 0.125 kg/ha): 9.0
- AMBEL herbicidal rating (AMBEL Ragweed, Common [14]; rate 0.016 kg/ha): 0.0
- AMBEL herbicidal rating (AMBEL Ragweed, Common [14]; rate 0.032 kg/ha): 0.0
- AMBEL herbicidal rating (AMBEL Ragweed, Common [14]; rate 0.062 kg/ha): 0.0
- AMBEL herbicidal rating (AMBEL Ragweed, Common [14]; rate 0.125 kg/ha): 1.0
- CASOB herbicidal rating (CASOB Sicklepod [15]; rate 0.016 kg/ha): 0.0
- CASOB herbicidal rating (CASOB Sicklepod [15]; rate 0.032 kg/ha): 0.0
- CASOB herbicidal rating (CASOB Sicklepod [15]; rate 0.062 kg/ha): 0.0
- CASOB herbicidal rating (CASOB Sicklepod [15]; rate 0.125 kg/ha): 0.0
- CHEAL herbicidal rating ([16]; rate 0.016 kg/ha): 0.0
- CHEAL herbicidal rating ([16]; rate 0.032 kg/ha): 7.0
- CHEAL herbicidal rating ([16]; rate 0.062 kg/ha): 9.0
- CHEAL herbicidal rating ([16]; rate 0.125 kg/ha): 9.0
- ECHCG herbicidal rating (ECHOG Barnyardgrass [17]; rate 0.016 kg/ha): 0.0
- ECHCG herbicidal rating (ECHOG Barnyardgrass [17]; rate 0.032 kg/ha): 2.0
- ECHCG herbicidal rating (ECHOG Barnyardgrass [17]; rate 0.062 kg/ha): 5.0
- ECHCG herbicidal rating (ECHOG Barnyardgrass [17]; rate 0.125 kg/ha): 8.0
- GALAP herbicidal rating (GALAP Galium [18]; rate 0.016 kg/ha): 0.0
- GALAP herbicidal rating (GALAP Galium [18]; rate 0.032 kg/ha): 0.0
- GALAP herbicidal rating (GALAP Galium [18]; rate 0.062 kg/ha): 0.0
- GALAP herbicidal rating (GALAP Galium [18]; rate 0.125 kg/ha): 0.0
- IPOHE herbicidal rating ([19]; rate 0.016 kg/ha): 0.0
- IPOHE herbicidal rating ([19]; rate 0.032 kg/ha): 0.0
- IPOHE herbicidal rating ([19]; rate 0.062 kg/ha): 0.0
- IPOHE herbicidal rating ([19]; rate 0.125 kg/ha): 1.0
- SETVI herbicidal rating (SETVI Foxtail, Green [20]; rate 0.016 kg/ha): 3.0
- SETVI herbicidal rating (SETVI Foxtail, Green [20]; rate 0.032 kg/ha): 8.0
- SETVI herbicidal rating (SETVI Foxtail, Green [20]; rate 0.062 kg/ha): 9.0
- SETVI herbicidal rating (SETVI Foxtail, Green [20]; rate 0.125 kg/ha): 9.0
- GLXMAW herbicidal rating (GLXMAW Soybean, Williams [21]; rate 0.016 kg/ha): 0.0
- GLXMAW herbicidal rating (GLXMAW Soybean, Williams [21]; rate 0.032 kg/ha): 0.0
- GLXMAW herbicidal rating (GLXMAW Soybean, Williams [21]; rate 0.062 kg/ha): 0.0
- GLXMAW herbicidal rating (GLXMAW Soybean, Williams [21]; rate 0.125 kg/ha): 0.0
- TRZAWR herbicidal rating ([22]; rate 0.016 kg/ha): 0.0
- TRZAWR herbicidal rating ([22]; rate 0.032 kg/ha): 0.0
- TRZAWR herbicidal rating ([22]; rate 0.062 kg/ha): 1.0
- TRZAWR herbicidal rating ([22]; rate 0.125 kg/ha): 3.0
- ORYSAT herbicidal rating (ORYSAT Rice, Tebonnet [23]; rate 0.016 kg/ha): 0.0
- ORYSAT herbicidal rating (ORYSAT Rice, Tebonnet [23]; rate 0.032 kg/ha): 0.0
- ORYSAT herbicidal rating (ORYSAT Rice, Tebonnet [23]; rate 0.062 kg/ha): 0.0
- ORYSAT herbicidal rating (ORYSAT Rice, Tebonnet [23]; rate 0.125 kg/ha): 0.0
- ZEAMX herbicidal rating (ZEAMX Corn, Field [24]; rate 0.016 kg/ha): 0.0
- ZEAMX herbicidal rating (ZEAMX Corn, Field [24]; rate 0.032 kg/ha): 0.0
- ZEAMX herbicidal rating (ZEAMX Corn, Field [24]; rate 0.062 kg/ha): 0.0
- ZEAMX herbicidal rating (ZEAMX Corn, Field [24]; rate 0.125 kg/ha): 4.0

Source: patent US20020111274A1, “1-alkyl-3-[1-(substituted phenyl) benzotriazol-6-yl] uracils” (BASF Aktiengesellschaft, priority 2000, published 2002)
